Laboratory results taken from patent US8759364B2, “Methods of treating bone mass diseases” (The Trustees of Columbia University in the City of New York, priority 2008, dated 2014).
“Also recorded” adds a separate entry of the source.

Key:
serotonin in the brain = test: Brain serotonin and blood brain barrier crossing after oral feeding; format: in vivo, mice
Method: The ability of selective TPH1 inhibitor CBMIDA to reduce peripheral serotonin measured in serum was tested. Either 250 or 500 mg/kg doses of CBMIDA were administered orally twice in 20 hours to 4 week old mice, 4-5 mice per group. As a control, some mice were untreated and some received 250 mg/kg pCPA orally. […] CBMIDA has been reported to be an EDTA analog that increases osteoid volume in beagle dogs and induces proliferation of rat calvarial-derived osteoblasts in vitro (Xie, et al., Bioorganic & Medicinal Chemistry Letters 15 (2005) 3267-3270, incorporated herein by reference in its entirety).
Before the experiments, animals were separated into individual cages one day prior to the experiment. Compounds were fed orally (gavage) to the mouse, calculated according to the weight of the mouse, twice a day at 1700 h and at 1100 h. […] This route created two potential barriers for the compound to reach the brain. […] Control animals received the same volume of vehicle. Blood was collected through heart puncture on isofluorane-anaesthesized animals and allowed to clot for 5 minutes on ice. The serum was separated, snap chilled in liquid nitrogen and frozen at −80° C. till analyzed. Brainstems from all the animals were collected and processed for brain serotonin measurement through HPLC.

Lrp5−/− mice = test: pCPA treatment of WT and Lrp5−/− mice (bone histomorphometry, serum serotonin, TPH1/TPH2 expression); format: in vivo
Method: Consistent with the conclusion that the increase in serum serotonin level is responsible fully or partly for the bone phenotype of the Lrp5−/− mice is the discovery that pCPA, a serotonin synthesis inhibitor (Eldridge et al., 1981, Ann. Rev. Physiol. 43:121-135), prevented the appearance of the Lrp5−/− bone phenotype by decreasing serotonin production. WT and Lrp5−/− mice were treated with 300 mg/kg pCPA intraperitoneally three times per week, from 3 weeks to 12 weeks of age (FIG. 7A) and the changes in serum serotonin levels, TPH1 expression in gut and TPH2 expression in brain stem were analyzed. Bone histomorphometry was also performed. […] This rescue of the Lrp5−/− phenotype was achieved by normalization of the gut TPH1 mRNA and of serum serotonin levels (FIGS. 7C and 7D).
Generation of Lrp5−/− (Kato et al., 2002, J. Cell Biol. 157:303-314) β-cateninfloxed/floxed (Glass et al., 2005, Dev. Cell 8:751-764), α1(I)collagen-cre transgenic (Dacquin et al., 2002, Dev. Dyn. 224:245-251) and Htt−/− (Ansorge et al., 2008, J. Neurosci. 28:199-207) mice were as described previously. Lrp5+/−;Htt+/− double heterozygous mice were generated by crossing Lrp5+/− and Htt+/− mice. Three week-old Wt or Lrp5−/− mice were administered pCPA on alternate days for 9 weeks by i.p. All animal protocols were approved by the Animal Care Committees of Columbia University.
Static histomorphometry measurements were performed as previously described in accordance with standard nomenclature, using the Osteomeasure Analysis System (Osteometrics, Inc) (Ducy et al., 2000, Cell 100:197-207). Four to 9 animals were assigned per group.
Serotonin serum levels were quantified using immunoassay kits from Fitzgerald (Serotonin) and serotonin levels in the different regions of the brain were quantified by HPLC method as described previously (Mann et al., 1992, Arch. Gen. Psychiatry 49:442-446).

[1] = system: peripheral serotonin production; test: Pilot study of tryptophan hydroxylase inhibitors on peripheral serotonin production in ovariectomized mice, Example 12; format: in vivo; conditions: pCPA used as control; FIG. 15
Method: 6-week old C57Bl/6 inbred female mice, weighing 12-14 g, were used in the experiments. Animals were housed under 12 h light/12 h dark conditions in a room with controlled temperature (22° C.) and humidity (60%). Mice had ad libitum access to food and water, and were used after a minimum of 4 days of acclimatization to the housing conditions. All experiments were conducted following Columbia University Guidelines for the Animal Use and Care of laboratory mice.
Animals were separated into different groups one day prior to the experiments. Mice were ovariectomized (OVX) under anaesthesia (Avertin). Compounds were fed orally (Gavage) twice a day at 1700 h and at 1100 h for the pilot study while for the long term study compounds were given at 1700 h once a day. […] This route creates two potential barriers for the compound to reach the brain. […] Control animals received the same volume of vehicle. Blood was collected through heart puncture on isofluorane-anaesthesized animals, allowed to clot for 5 minutes on ice and then serum was separated, snap chilled in liquid nitrogen and frozen at −80° C. till analyzed. Mice were observed daily for any physical or behavioral abnormality during the course of investigation.
• Group 1: Vehicle • Group 2: Compound 1 • Group 3: Compound 2 • Group 4: Compound 3 • Group 5: Compound 4 (LP-533401) Experiment II: Effect of Compounds 1 and 4 on Protection from OVX-Induced Bone Loss Protocol 1: Gavage Feeding of the Compounds Will be Started 1 Day after OVX for 6 Weeks • Group 1: Sham treatment • Group 2: OVX • Group 3: OVX+Compound 1 (250 mg/kg) • Group 4: OVX+Compound 1 (500 mg/kg) • Group 5: OVX+Compound 4 (250 mg/kg) Protocol 2: Gavage Feeding of the Compounds Will be Started 2 Weeks after OVX for 6 Weeks • Group 1: Sham treatment • Group 2: OVX • Group 3: OVX+Compound 1 (250 mg/kg) • Group 4: OVX+Compound 1 (500 mg/kg) • Group 5: OVX+Compound 4 (250 mg/kg) Protocol 3: Gavage Feeding of the Compounds Will be Started 4 Weeks after OVX for 6 Weeks • Group 1: Sham treatment • Group 2: OVX • Group 3: OVX+Compound 1 (250 mg/kg) • Group 4: OVX+Compound 1 (500 mg/kg) • […] Serotonin Measurement in Serum
The Serotonin ELISA kit obtained from the Fitzgerald company was used to measure derivatized serotonin from serum. Derivatization is part of the sample preparation. Serotonin present in the serum was first quantitatively acylated using the acylation reagent into N-Acylserotonin. The principle of the assay is based on competitive ELISA, wherein serotonin that is bound to the solid phase of the plate and the N-acylserotonin compete for the fixed number of antiserum binding sites. When the reaction is in equilibrium, free antigen and free antigen-antiserum complexes are removed by washing. The antibody bound to the solid phase serotonin is then detected by anti-rabbit/peroxidase. The substrate TMB/Peroxidase reaction is read at 450 nm. The amount of antibody bound to the solid phase serotonin is inversely proportional to the concentration of serotonin in the sample.
We used Catechol-3,6-bis methyleneiminodiacetic acid [(CBMIDA) Compound 1: basic structure is a EDTA-like compound and the catechol ring is at the center)] synthesized at the Columbia University Chemistry division and para-Chlorophenylalanine (pCPA) obtained from Sigma Aldrich Corp. for our experiments. Compounds were dissolved with twice molar solution of NaHCO3 in water and given to mice orally at 250 and 500 mg/kg/dose. Compounds 2 and 3 were dissolved in water.

[2] = 300 mg/kg pCPA i.p. three times per week, 3 to 12 weeks of age, FIG. 7

SMILES: NC(Cc1ccc(Cl)cc1)C(=O)O (centres unmarked) [pCPA, para-chlorophenylalanine]
- serotonin in the brain (serotonin in the brain; 250 mg/kg orally): did not decrease
- crossing of the blood brain barrier (serotonin in the brain; at the amounts used (250 mg/kg)): did not cross
- bone mass in WT mice (Lrp5−/− mice; 300 mg/kg pCPA i.p. three times per week, 3 to 12 weeks of age): without overtly affecting
- gut TPH1 mRNA in Lrp5−/− mice (Lrp5−/− mice; [2]): normalization
- serum serotonin levels in Lrp5−/− mice (Lrp5−/− mice; [2]): normalization; also recorded: normalizes
- bone abnormalities (low bone phenotype) of Lrp5−/− mice (Lrp5−/− mice; 300 mg/kg pCPA i.p. three times per week, 3 to 12 weeks of age, histomorphometry, FIG. 7B): corrected
- Brain TPH2 mRNA levels (Lrp5−/− mice; treated mice, 300 mg/kg pCPA i.p.): not affected
- serotonin levels decreased to % below normal range [1]: 60%
